According to ChEMBL document CHEMBL1201862, “PubChem BioAssay data set” (2004):
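48-hour exposure; five concentrations; linearly interpolated endpoints. GI50 = concentration required for 50% inhibition of growth.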 The source made the active and inactive calls. No stated cut-off is given here; in the data, active = GI50 up to about 1.1 µM and inactive = higher.

Legend:
Test in all cases: NCI anticancer screen, dose series, 48 h
CAKI-1 = test system: CAKI-1
COLO 205 = test system: COLO 205
DU-145 = test system: DU-145
HCC 2998 = test system: HCC 2998
HCT-15 = test system: HCT-15
K562 = test system: K562
KM12 = test system: KM12
M14 = test system: M14
MDA-MB-231 = test system: MDA-MB-231
MDA-N = test system: MDA-N
NCI-H23 = test system: NCI-H23
OVCAR-4 = test system: OVCAR-4
RPMI-8226 = test system: RPMI-8226
RXF 393 = test system: RXF 393
SF-268 = test system: SF-268
SK-OV-3 = test system: SK-OV-3
SNB-75 = test system: SNB-75
U-251 = test system: U-251
HL-60 = test system: HL-60
SF-539 = test system: SF-539

SMILES	GI50 (CAKI-1)	GI50 (COLO 205)	GI50 (DU-145)	GI50 (HCC 2998)	GI50 (HCT-15)	GI50 (K562)	GI50 (KM12)	GI50 (M14)	GI50 (MDA-MB-231)	GI50 (MDA-N)	GI50 (NCI-H23)	GI50 (OVCAR-4)	GI50 (RPMI-8226)	GI50 (RXF 393)	GI50 (SF-268)	GI50 (SK-OV-3)	GI50 (SNB-75)	GI50 (U-251)	GI50 (HL-60)	GI50 (SF-539)
CCOC(=O)c1ccc(-c2onc(C)c2Br)[nH]1	50.8 µM (inactive)	50.2 µM (inactive)	55.3 µM (inactive)	> 100 µM (inactive)	36.1 µM	80.2 µM (inactive)	74 µM (inactive)	62.7 µM (inactive)	41.7 µM (inactive)	66.4 µM (inactive)	46.8 µM (inactive)	43.2 µM (inactive)	86.7 µM (inactive)	21.4 µM (inactive)	> 100 µM (inactive)	76.6 µM (inactive)	41.7 µM (inactive)	36.4 µM (inactive)		
O=C(O)C1CCN(Cc2oc(CO)cc(=O)c2O)C1 (centres undefined)	> 100 µM (inactive)	> 100 µM (inactive)	> 100 µM (inactive)		> 100 µM	> 100 µM (inactive)	> 100 µM (inactive)	> 100 µM (inactive)	> 100 µM (inactive)	> 100 µM (inactive)	> 100 µM (inactive)	> 100 µM (inactive)	> 100 µM (inactive)	> 100 µM (inactive)	> 100 µM (inactive)	> 100 µM (inactive)	> 100 µM (inactive)	> 100 µM (inactive)	> 100 µM (inactive)	
O=C(CN1c2ccccc2Sc2ccccc21)N1CCNCC1		> 100 µM (inactive)	> 100 µM (inactive)		> 100 µM	> 100 µM (inactive)	64.4 µM (inactive)	> 100 µM (inactive)	> 100 µM (inactive)	> 100 µM (inactive)	> 100 µM (inactive)	> 100 µM (inactive)	> 100 µM (inactive)	97.5 µM (inactive)	> 100 µM (inactive)	> 100 µM (inactive)	30.9 µM (inactive)	56.1 µM (inactive)	> 100 µM (inactive)	> 100 µM (inactive)
CC(C)CC(NC=O)C(=O)NC(Cc1ccccc1)NC(=O)CNC(=O)C(C)NC(=O)C(N)Cc1ccc(O)cc1 (centres undefined)	> 100 µM (inactive)	> 100 µM (inactive)	> 100 µM (inactive)		> 100 µM	> 100 µM (inactive)	> 100 µM (inactive)	> 100 µM (inactive)	> 100 µM (inactive)	> 100 µM (inactive)	> 100 µM (inactive)	91.8 µM (inactive)	> 100 µM (inactive)	> 100 µM (inactive)	> 100 µM (inactive)	> 100 µM (inactive)	> 100 µM (inactive)	> 100 µM (inactive)	> 100 µM (inactive)	> 100 µM (inactive)
COc1cc(C2c3c(ccc4ccccc34)C(=O)C3CCC(=O)N32)cc(OC)c1OC (centres undefined)	> 50 µM (inactive)	> 50 µM (inactive)	> 50 µM (inactive)		> 50 µM	> 50 µM (inactive)	> 50 µM (inactive)	> 50 µM (inactive)	> 50 µM (inactive)	> 50 µM (inactive)	> 50 µM (inactive)	> 50 µM (inactive)	46.8 µM (inactive)	> 50 µM (inactive)	> 50 µM (inactive)	> 50 µM (inactive)	> 50 µM (inactive)	> 50 µM (inactive)	> 50 µM (inactive)	> 50 µM (inactive)
CC(C(=O)NCNC(=O)c1ccccc1)C(=O)Nc1ccccc1 (centres undefined)	> 100 µM (inactive)	> 100 µM (inactive)	> 100 µM (inactive)		> 100 µM		> 100 µM (inactive)	> 100 µM (inactive)	> 100 µM (inactive)	> 100 µM (inactive)	> 100 µM (inactive)		> 100 µM (inactive)	> 100 µM (inactive)	> 100 µM (inactive)	> 100 µM (inactive)	> 100 µM (inactive)	> 100 µM (inactive)	> 100 µM (inactive)	> 100 µM (inactive)
COc1ccc2c(c1)-c1[nH]c3ccccc3c1CC2	15.4 µM (inactive)	16.6 µM (inactive)	17.9 µM (inactive)	10.2 µM (inactive)	14.7 µM	21.6 µM (inactive)	13.6 µM (inactive)	17.4 µM (inactive)	16.8 µM (inactive)	16 µM (inactive)	13.6 µM (inactive)	17.1 µM (inactive)	20.4 µM (inactive)		14.9 µM (inactive)	18.1 µM (inactive)	15.2 µM (inactive)	16.6 µM (inactive)		17.4 µM (inactive)
O=c1[nH]c2ccc(CC(=S)N3CCN(c4ccccc4)CC3)cc2s1	77.1 µM (inactive)	57.1 µM (inactive)	51.6 µM (inactive)		42.2 µM	48.2 µM (inactive)	26.2 µM (inactive)	23.1 µM (inactive)	21.9 µM (inactive)	> 100 µM (inactive)	20.7 µM (inactive)		12.7 µM (inactive)	18 µM (inactive)	26.1 µM (inactive)	15.7 µM (inactive)		3.95 µM (inactive)	> 100 µM (inactive)	28 µM (inactive)
